Measured values from patent US9518065B2, “IRAK inhibitors and uses thereof” (NIMBUS IRIS, INC., priority 2013, dated 2016).
pIC50: −log10 of the molar value. Like-named read-outs stand apart in the source and are kept apart here.

Experiments:
[1] = tested on: cytokine production in human white blood cells (hWBC); test: In vitro LPS/R848/CpG-induced cytokine production assay in hWBC; assay type: cell-based; details: WBC
Experimental: Compounds of the present invention were also studied in in vitro LPS/R848/CpG-induced cytokine production assays. Exemplary protocols follow.
Whole Blood (LPS): 13 mL of whole blood solution was prepared by combining whole blood in no serum medium with a ratio of 1:1. Cells were seeded in a 96-well plate with 130 ul/well of the cell suspension according to the plate map. 9 ul of 30 mM compound solution was added into the wells in the assigned rows, then serial solutions with 4× dilutions were made. That is, add 9 uL of 100% DMSO into each of the rest wells and take 3 uL of compound solution from the one-step higher concentration solution and mix well with the DMSO. For the second compound master plate, 196 uL of the growth medium (no serum media) were added into each of the wells and 4 uL of the compound solution from the first compound master plate was added and mixed with the media. Cells were treated for 0.5 h by adding 20 uL of the compound and the control solutions prepared in the second master plate to each well according to the plate map. Cells were stimulated with a) 0.1 ug/mL of LPS overnight for whole blood assay; b) 0.01 ug/mL of LPS overnight for hWBC assay. Plates were sealed with sealing films and the plates were centrifuged at 3000 rpm at 4 degrees C. for 5 min. The supernatants were transferred, and 100 ul of working Capture antibody solution was added to each well. The plates were sealed and incubated overnight at RT. IL-6, IFN-α or TNF-α detection antibody labeled with biotin: Added 100 uL of the Detection Antibody solution to each well. Covered the plate and incubated for 2 h at RT. Added 100 uL of Streptavidin-HRP solution to each well. Covered the plate and incubate for 20 min at RT in dark. Added 100 uL of Substrate Solution to each well. Incubated for 20 min at RT in dark. Added 50 uL of Stop Solution to each well. Gently tapped the plate to ensure thorough mixing. Determined the optical density of each well immediately, using a microplate reader set to 450 nm and also read at 540 nm or 570 nm for correction if wavelength correction is not available.

[2] = tested on: TNFα and IL8 production in THP-1 cells; test: LPS induced cytokine (TNFα and IL8) production assay in THP-1 cells; assay type: cell-based; details: 300 ng/mL LPS
Method in brief: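 THP-1 cells (100,000/well) pre-incubated 1 h with compound (final 0.3% DMSO), then stimulated with 300 ng/mL LPS. TNFα and IL8 in supernatant measured by HTRF at 5 h; IL8 and cell viability also assessed at 16 h.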

[3] = Homo sapiens, CPG 0.5 uM, overnight, read-out: IFN-α production IC50
[4] = Homo sapiens, LPS 0.1 uM, overnight, read-out: TNF-α production IC50
[5] = Homo sapiens, R848 1 uM, 5 h, read-out: TNF-α production IC50
[6] = Homo sapiens, 5 hours, read-out: TNFα production IC50
[7] = Homo sapiens, 16 hours, read-out: IL8 (16 h) production IC50

| Compound | pIC50 ([1]; CPG 0.5 uM, overnight, read-out: IFN-α production IC50) | pIC50 ([1]; LPS 0.1 uM, overnight, read-out: TNF-α production IC50) | pIC50 ([1]; R848 1 uM, 5 h, read-out: TNF-α production IC50) | pIC50 ([2]; 5 hours, read-out: TNFα production IC50) | pIC50 ([2]; 16 hours, read-out: IL8 (16 h) production IC50) | pIC50 [1, 3] | pIC50 [1, 4] | pIC50 [1, 5] | pIC50 [2, 6] | pIC50 [2, 7] |
| --- | --- | --- | --- | --- | --- | --- | --- | --- | --- | --- |
| 2-methyl-N5-(1-methyl-1H-pyrazol-4-yl)-N7-((1r,4r)-4-morpholinocyclohexyl)thiazolo[5,4-d]pyrimidine-5,7-diamine [Compound I-24] | ≥ 6.60 | ≥ 6.60 | ≥ 6.60 | ≤ 6.30 | 6.30 to 6.60 |  |  |  |  |  |
| CCc1nc2c(N[C@H]3CC[C@H](N4CCOCC4)CC3)nc(Nc3cnn(C)c3)nc2s1 [Compound I-7, 2-ethyl-N5-(1-methyl-1H-pyrazol-4-yl)-N7-((1r,4r)-4-morpholinocyclohexyl)-thiazolo[5,4-d]pyrimidine-5,7-diamine] |  |  |  |  |  | ≥ 6.60 | 6.00 to 6.60 | 6.00 to 6.60 | ≥ 6.60 | ≥ 6.60 |
| CCc1nc2c(N[C@H]3CC[C@H](N4CCOCC4)CC3)nc(Nc3cnn(C4CCOCC4)c3)nc2s1 [Compound I-9, 2-ethyl-5-N-[1-(oxan-4-yl)-1H-pyrazol-4-yl]-7-N—[trans-4-(morpholin-4-yl)cyclohexyl]-[1,3]thiazolo[5,4-d]pyrimidine-5,7-diamine] |  |  |  |  |  | ≥ 6.60 | ≥ 6.60 | ≥ 6.60 | ≥ 6.60 | ≥ 6.60 |
